Measured values from ChEMBL document CHEMBL3804818 (J Med Chem, 2016).

What was measured:
Endoplasmin = Endoplasmin (Homo sapiens, UniProt P14625)
[1] = target: Heat shock protein HSP 90-alpha (Homo sapiens, UniProt P07900)

Chain of Endoplasmin (P14625 whole entry): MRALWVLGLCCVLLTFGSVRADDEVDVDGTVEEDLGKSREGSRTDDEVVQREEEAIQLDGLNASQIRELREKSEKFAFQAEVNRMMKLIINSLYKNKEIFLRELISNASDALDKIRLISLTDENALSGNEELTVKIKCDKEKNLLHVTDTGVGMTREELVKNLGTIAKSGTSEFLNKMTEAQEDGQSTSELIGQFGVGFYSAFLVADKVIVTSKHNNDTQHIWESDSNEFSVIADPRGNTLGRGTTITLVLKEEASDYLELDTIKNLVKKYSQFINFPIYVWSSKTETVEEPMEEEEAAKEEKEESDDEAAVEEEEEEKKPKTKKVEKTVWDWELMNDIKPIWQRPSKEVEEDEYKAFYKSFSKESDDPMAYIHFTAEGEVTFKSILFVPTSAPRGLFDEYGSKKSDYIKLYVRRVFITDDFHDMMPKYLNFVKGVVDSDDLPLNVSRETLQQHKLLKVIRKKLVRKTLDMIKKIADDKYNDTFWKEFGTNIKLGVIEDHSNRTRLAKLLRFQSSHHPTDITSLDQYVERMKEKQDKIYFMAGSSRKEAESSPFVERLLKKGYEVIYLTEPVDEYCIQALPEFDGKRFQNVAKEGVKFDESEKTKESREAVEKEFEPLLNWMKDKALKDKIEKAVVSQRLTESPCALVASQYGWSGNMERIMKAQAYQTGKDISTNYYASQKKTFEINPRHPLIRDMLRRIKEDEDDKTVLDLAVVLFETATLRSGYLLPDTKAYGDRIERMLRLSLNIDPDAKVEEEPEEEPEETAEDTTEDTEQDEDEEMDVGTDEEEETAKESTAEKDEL

Kd (Endoplasmin)	Kd [1]	Structure (SMILES)
0.68 µM	5.13 µM	COC(=O)c1c(O)cc(O)c(Cl)c1CCc1nccn1Cc1ccc(C)s1
4.04 µM		COC(=O)c1c(O)cc(O)c(Cl)c1CCc1nccn1Cc1cccnc1
0.76 µM	3.16 µM	COC(=O)c1c(O)cc(O)c(Cl)c1CCc1nccn1Cc1sccc1Cl
1.6 µM		COC(=O)c1c(O)cc(O)c(Cl)c1CCc1nccn1Cc1ccccc1Br
2.14 µM	6.54 µM	COC(=O)c1c(O)cc(O)c(Cl)c1CCc1nccn1Cc1ccsc1
0.55 µM	5.91 µM	COC(=O)c1c(O)cc(O)c(Cl)c1CCc1nccn1Cc1ccco1
0.75 µM	36.7 µM	C=Cc1ccsc1Cn1ccnc1CCc1c(Cl)c(O)cc(O)c1C(=O)OC
0.65 µM		COC(=O)c1c(O)cc(O)c(Cl)c1CCc1nccn1Cc1ccc(C)o1
1.5 µM	3.77 µM	COC(=O)c1c(O)cc(O)c(Cl)c1CCc1nccn1Cc1ccoc1
3.2 µM		COC(=O)c1c(O)cc(O)c(Cl)c1CCc1nccn1Cc1ccc(F)cc1
2.36 µM		C=Cc1ccoc1Cn1ccnc1CCc1c(Cl)c(O)cc(O)c1C(=O)OC
0.47 µM	3.92 µM	COC(=O)c1c(O)cc(O)c(Cl)c1CCc1nccn1Cc1cccs1
0.67 µM	1.8 µM	COC(=O)c1c(O)cc(O)c(Cl)c1CCc1nccn1Cc1cc(Cl)cs1
2.5 µM	16 µM	COC(=O)c1c(O)cc(O)c(Cl)c1CCc1nccn1Cc1nccs1
1.36 µM	11.4 µM	COC(=O)c1c(O)cc(O)c(Cl)c1CCc1nccn1Cc1ccccc1F

Second part, the molecule before the results:

Structure (SMILES)	Kd (Endoplasmin)	Kd [1]
COC(=O)c1c(O)cc(O)c(Cl)c1CCc1nccn1Cc1ccno1	0.4 µM	0.81 µM
COC(=O)c1c(O)cc(O)c(Cl)c1CCc1nccn1Cc1ccc(Cl)cc1	0.81 µM	
COC(=O)c1c(O)cc(O)c(Cl)c1CCc1nccn1Cc1ccccn1	4.94 µM	9.92 µM
COC(=O)c1c(O)cc(O)c(Cl)c1CCc1nccn1Cc1ccccc1OC	1.3 µM	53.9 µM
CCc1ccccc1Cn1ccnc1CCc1c(Cl)c(O)cc(O)c1C(=O)OC	0.81 µM	38.8 µM
CCOc1ccccc1Cn1ccnc1CCc1c(Cl)c(O)cc(O)c1C(=O)OC	0.2 µM	8.1 µM
COC(=O)c1c(O)cc(O)c(Cl)c1CCc1nccn1Cc1ccc(C)cc1	0.73 µM	25.2 µM
COC(=O)c1c(O)cc(O)c(Cl)c1CCc1nccn1Cc1ccccc1OC(C)C	0.09 µM	0.24 µM
COC(=O)c1c(O)cc(O)c(Cl)c1CCc1nccn1Cc1ccc(C#N)cc1	4.7 µM	18.2 µM
CCCOc1ccccc1Cn1ccnc1CCc1c(Cl)c(O)cc(O)c1C(=O)OC	0.25 µM	2.3 µM
COC(=O)c1c(O)cc(O)c(Cl)c1CCc1nccn1Cc1ccc(OC)cc1	6.9 µM	> 150 µM
COC(=O)c1c(O)cc(O)c(Cl)c1CCc1nccn1Cc1ccccc1C	3 µM	68.1 µM
COC(=O)c1c(O)cc(O)c(Cl)c1CCc1nccn1Cc1ccc(C)cc1OC	2.35 µM	72.5 µM
COC(=O)c1c(O)cc(O)c(Cl)c1CCc1nccn1Cc1oc(C)cc1C	0.35 µM	9.2 µM
COC(=O)c1c(O)cc(O)c(Cl)c1CCc1nccn1Cc1cncnc1	9.18 µM	9.92 µM
COC(=O)c1c(O)cc(O)c(Cl)c1CCc1nccn1Cc1ccccc1Cl	1.39 µM	8.47 µM
COC(=O)c1c(O)cc(O)c(Cl)c1CCc1nccn1Cc1cccc(F)c1	1.53 µM	9.63 µM
COC(=O)c1c(O)cc(O)c(Cl)c1CCc1nccn1Cc1ccc(Cl)s1	0.93 µM	34.7 µM
CCc1ccsc1Cn1ccnc1CCc1c(Cl)c(O)cc(O)c1C(=O)OC	0.72 µM	6.94 µM
COC(=O)c1c(O)cc(O)c(Cl)c1CCc1nccn1Cc1ccccc1C(F)(F)F	1.53 µM	19.3 µM
C#Cc1ccc(Cn2ccnc2CCc2c(Cl)c(O)cc(O)c2C(=O)OC)cc1	1.4 µM	15.8 µM
